Laboratory results as given in patent US10189842B2 (Agency for Science, Technology and Research, priority 2013, dated 2019).

These compounds were tested on HEK293-STF3A cells (assay: STF3A assay (luciferase reporter)). Conditions: 1 day of treatment.
Assay type: cell-based, Human
Description: HEK293-STF cell line was modified from Human embryonic kidney cell line HEK293 transfected with the STF reporter. HEK293-STF3A cell line was further modified from HEK293-STF cell line to express Wnt3A. This cell line was used to identify compounds that regulate either early or late signaling components of the Wnt pathway. These two cell lines were obtained from David Virshup's laboratory, Duke-NUS. L-Wnt3A (ATCC, #CRL-2647) cell line was used for providing Wnt3A conditioned media. The three cell lines were grown in DMEM with 10% FBS incubated in 37° C. with 5% CO2.
2×10^4 HEK293-STF3A cells in 75 μl culture media were seeded in each well of white 96 well plates (Greiner #655098) and incubated overnight at 37° C. 25 μl serially diluted compound was added to the cells to give final concentration of 50 μM to 1.5 nM. After 1 day of treatment, 100 μl of Steady-Glo Luciferase Assay reagent (#E2520, Promega) was added to each well and incubated for 10 minutes at room temperature. Luminescence was measured using Tecan Safire2 plate reader.

**Q.** “4-(2-methyl-6,7-dihydropyrazolo[1,5-a]pyrimidin-4(5H)-yl)-N-(4-(2-methylthiazol-4-yl)phenyl)-4-oxobutanamide [Compound 32]” was tested. Which IC50 did it give?
**A.** < 0.1 µM

Same assay, conditions: Homo sapiens, 24 h, 1 day of treatment

**Q.** For `Cc1cc2n(n1)CCCN2C(=O)CCC(=O)Nc1cc(C)c(-c2cccnc2)cn1` [Compound 119, N-(4-methyl-3,3′-bipyridin-6-yl)-4-(2-methyl-6,7-dihydropyrazolo[1,5-a]pyrimidin-4(5H)-yl)-4-oxobutanamide], which IC50 is on record?
**A.** < 5 µM

**Q.** For `Cc1cc2n(n1)CCCN2C(=O)CC(C)C(=O)Nc1ccc(-c2cccnc2)nc1` (stereo not drawn) [Compound 145, N-([2,3′-bipyridin]-5-yl)-2-methyl-4-(2-methyl-6,7-dihydropyrazolo[1,5-a]pyrimidin-4(5H)-yl)-4-oxobutanamide], which IC50 is on record?
**A.** < 0.1 µM

**Q.** How did the IC50 turn out when `Cc1cc2n(n1)CCCN2C(=O)CCC(=O)Nc1ccc(-c2cccc(C(=O)N(C)C)c2)cc1` [Compound 68, N,N-dimethyl-4′-(4-(2-methyl-6,7-dihydropyrazolo[1,5-a]pyrimidin-4(5H)-yl)-4-oxobutanamido)-[1,1′-biphenyl]-3-carboxamide] was run?
**A.** > 10 µM

**Q.** For `Cc1cc2n(n1)CCCN2C(=O)CCC(=O)Nc1ccc(-c2ccc(F)cn2)cn1` [Compound 94, N-(5-fluoro-2,3′-bipyridin-6′-yl)-4-(2-methyl-6,7-dihydropyrazolo[1,5-a]pyrimidin-4(5H)-yl)-4-oxobutanamide], which IC50 is on record?
**A.** < 0.1 µM

**Q.** How did the IC50 turn out when `Cc1cc2n(n1)CCCN2C(=O)CCC(=O)Nc1cc(-c2cc(Cl)ccn2)no1` [Compound 16, N-(3-(4-chloropyridin-2-yl)isoxazol-5-yl)-4-(2-methyl-6,7-dihydropyrazolo[1,5-a]pyrimidin-4(5H)-yl)-4-oxobutanamide] was run?
**A.** > 10 µM

**Q.** `Cc1cc2n(n1)CCCN2C(=O)CCC(=O)Nc1ccc(-c2ccc(F)cc2)cc1` [Compound 66, N-(4′-fluorobiphenyl-4-yl)-4-(2-methyl-6,7-dihydropyrazolo[1,5-a]pyrimidin-4(5H)-yl)-4-oxobutanamide] was tested. Which IC50 did it give?
**A.** < 1 µM

**Q.** How did the IC50 turn out when `CC(=O)Nc1cccc(-c2ccc(NC(=O)CCC(=O)N3CCCn4nc(C)cc43)cc2)c1` [Compound 74, N-(3′-acetamido-[1,1′-biphenyl]-4-yl)-4-(2-methyl-6,7-dihydropyrazolo[1,5-a]pyrimidin-4(5H)-yl)-4-oxobutanamide] was run?
**A.** < 5 µM

**Q.** How did the IC50 turn out when `Cc1cc2n(n1)CCCN2C(=O)CCC(=O)Nc1ccc(-c2cncnc2)nc1` [Compound 154, 4-(2-methyl-6,7-dihydropyrazolo[1,5-a]pyrimidin-4(5H)-yl)-4-oxo-N-(6-(pyrimidin-5-yl)pyridin-3-yl)butanamide] was run?
**A.** < 1 µM

**Q.** Which IC50 does the source give for `Cc1cncc(-c2ccc(NC(=O)C(C)CC(=O)N3CCCn4nc(C)cc43)nc2)c1` (stereo not drawn) [Compound 152, 2-methyl-4-(2-methyl-6,7-dihydropyrazolo[1,5-a]pyrimidin-4(5H)-yl)-N-(5′-methyl-[3,3′-bipyridin]-6-yl)-4-oxobutanamide] here?
**A.** < 0.1 µM

**Q.** Which IC50 does the source give for `Cc1cccc(-c2ccc(NC(=O)CCC(=O)N3CCCn4nc(C)cc43)nc2)n1` [Compound 96, 4-(2-methyl-6,7-dihydropyrazolo[1,5-a]pyrimidin-4(5H)-yl)-N-(6-methyl-[2,3′-bipyridin]-6′-yl)-4-oxobutanamide] here?
**A.** < 0.1 µM

**Q.** How did the IC50 turn out when `Cc1cc2n(n1)CCCN2C(=O)CCC(=O)Nc1ccc(-c2cccc(F)c2)nc1` [Compound 84, N-(6-(3-fluorophenyl)pyridin-3-yl)-4-(2-methyl-6,7-dihydropyrazolo[1,5-a]pyrimidin-4(5H)-yl)-4-oxobutanamide] was run?
**A.** < 0.1 µM

**Q.** For `Cc1cc2n(n1)CCCN2C(=O)CCC(=O)Nc1ccc(-c2ccc(F)cc2)nc1` [Compound 87, N-(6-(4-fluorophenyl)pyridin-3-yl)-4-(2-methyl-6,7-dihydropyrazolo[1,5-a]pyrimidin-4(5H)-yl)-4-oxobutanamide], which IC50 is on record?
**A.** < 1 µM

**Q.** For `COc1cccc(-c2cc(NC(=O)CCC(=O)N3CCCn4nc(C)cc43)on2)c1` [Compound 10, N-[3-(3-methoxyphenyl)-1,2-oxazol-5-yl]-4-{2-methyl-5H,6H,7H-pyrazolo[1,5-a]pyrimidin-4-yl}-4-oxobutanamide], which IC50 is on record?
**A.** < 5 µM

**Q.** How did the IC50 turn out when `Cc1cc2n(n1)CCCN2C(=O)CCC(=O)Nc1ccc(C2CCCCC2)cc1` [Compound 75, N-(4-cyclohexylphenyl)-4-(2-methyl-6,7-dihydropyrazolo[1,5-a]pyrimidin-4(5H)-yl)-4-oxobutanamide] was run?
**A.** > 10 µM

**Q.** Which IC50 does the source give for `Cc1cc2n(n1)CCCN2C(=O)CCC(=O)Nc1ccc(N2CCCC2)cc1` [Compound 31, 4-(2-methyl-6,7-dihydropyrazolo[1,5-a]pyrimidin-4(5H)-yl)-4-oxo-N-(4-(pyrrolidin-1-yl)phenyl)butanamide] here?
**A.** < 5 µM

**Q.** Which IC50 does the source give for `COc1cc(NC(=O)CCC(=O)N2CCCn3nc(C)cc32)ccc1-c1ccccc1` [Compound 56, N-(2-methoxy-[1,1′-biphenyl]-4-yl)-4-(2-methyl-6,7-dihydropyrazolo[1,5-a]pyrimidin-4(5H)-yl)-4-oxobutanamide] here?
**A.** < 5 µM

**Q.** `CC(=O)N1CCN(c2ccc(NC(=O)CCC(=O)N3CCCn4nc(C)cc43)cc2)CC1` [Compound 78, N-(4-(4-acetylpiperazin-1-yl)phenyl)-4-(2-methyl-6,7-dihydropyrazolo[1,5-a]pyrimidin-4(5H)-yl)-4-oxobutanamide] was tested. Which IC50 did it give?
**A.** > 10 µM

**Q.** With `COc1ccc(-c2ccc(NC(=O)CCC(=O)N3CCCn4nc(C)cc43)cc2)cc1` [Compound 63, N-(4′-methoxy-[1,1′-biphenyl]-4-yl)-4-(2-methyl-6,7-dihydropyrazolo[1,5-a]pyrimidin-4(5H)-yl)-4-oxobutanamide] as the compound, how does the IC50 read?
**A.** < 0.1 µM

**Q.** With `Cc1cc2n(n1)CCCN2C(=O)CCC(=O)Nc1cc(-c2cccc(Br)c2)no1` [Compound 9, N-[3-(3-bromophenyl)-1,2-oxazol-5-yl]-4-{2-methyl-5H,6H,7H-pyrazolo[1,5-a]pyrimidin-4-yl}-4-oxobutanamide] as the compound, how does the IC50 read?
**A.** < 1 µM

**Q.** `Cc1cc2n(n1)CCCN2C(=O)CCC(=O)Nc1ccc(-c2cccc(Cl)c2)nn1` [Compound 97, N-(6-(3-chlorophenyl)pyridazin-3-yl)-4-(2-methyl-6,7-dihydropyrazolo[1,5-a]pyrimidin-4(5H)-yl)-4-oxobutanamide] was tested. Which IC50 did it give?
**A.** < 0.1 µM

**Q.** With `Cc1cc2n(n1)CCCN2C(=O)CCC(=O)Nc1ccc(-c2cncc(N)c2)cn1` [Compound 117] as the compound, how does the IC50 read?
**A.** < 0.1 µM

**Q.** Which IC50 does the source give for `Cc1cc2n(n1)CCCN2C(=O)CCC(=O)Nc1ccc(-c2ncccn2)cc1` [Compound 40, 4-{2-methyl-5H,6H,7H-pyrazolo[1,5-a]pyrimidin-4-yl}-4-oxo-N-[4-(pyrimidin-2-yl)phenyl]butanamide] here?
**A.** < 1 µM

**Q.** `Cc1cc2n(n1)CCCN2C(=O)CCC(=O)Nc1ccc(-c2cccnc2)nc1` [Compound 48, N-([2,3′-bipyridin]-5-yl)-4-(2-methyl-6,7-dihydropyrazolo[1,5-a]pyrimidin-4(5H)-yl)-4-oxobutanamide] was tested. Which IC50 did it give?
**A.** < 0.1 µM

**Q.** `Cc1cncc(-c2ncc(NC(=O)CCC(=O)N3CCCn4nc(C)cc43)cc2C)c1` [Compound 168, N-(3,5′-dimethyl-[2,3′-bipyridin]-5-yl)-4-(2-methyl-6,7-dihydropyrazolo[1,5-a]pyrimidin-4(5H)-yl)-4-oxobutanamide] was tested. Which IC50 did it give?
**A.** < 1 µM

**Q.** Which IC50 does the source give for `Cc1cc2n(n1)CC(C)CN2C(=O)CCC(=O)Nc1ccc(-c2cncc(F)c2)nn1` (stereo not drawn) [Compound 167, 4-(2,6-dimethyl-6,7-dihydropyrazolo[1,5-a]pyrimidin-4(5H)-yl)-N-(6-(5-fluoropyridin-3-yl)pyridazin-3-yl)-4-oxobutanamide] here?
**A.** < 0.1 µM

**Q.** With `Cc1cc2n(n1)CC(C)CN2C(=O)CCC(=O)Nc1ccc(-c2ccc(F)cn2)cn1` (stereo not drawn) [Compound 164, 4-(2,6-dimethyl-6,7-dihydropyrazolo[1,5-a]pyrimidin-4(5H)-yl)-N-(5-fluoro-[2,3′-bipyridin]-6′-yl)-4-oxobutanamide] as the compound, how does the IC50 read?
**A.** < 1 µM

**Q.** With `Cc1cc2n(n1)CCCN2C(=O)CCC(=O)Nc1ccc(N2CCN(C(=O)OC(C)(C)C)CC2)cc1` [Compound 76, tert-butyl 4-(4-(4-(2-methyl-6,7-dihydropyrazolo[1,5-a]pyrimidin-4(5H)-yl)-4-oxobutanamido)phenyl)piperazine-1-carboxylate] as the compound, how does the IC50 read?
**A.** < 0.1 µM

**Q.** `Cc1cc2n(n1)CCCN2C(=O)CCC(=O)Nc1ccc(-c2cncc(C(F)(F)F)c2)nn1` [Compound 105, 4-(2-methyl-6,7-dihydropyrazolo[1,5-a]pyrimidin-4(5H)-yl)-4-oxo-N-(6-(5-(trifluoromethyl)pyridin-3-yl)pyridazin-3-yl)butanamide] was tested. Which IC50 did it give?
**A.** < 0.1 µM

**Q.** For `Cc1cc2n(n1)CCCN2C(=O)CCC(=O)Nc1ccc(-c2cnccn2)cn1` [Compound 50, 4-(2-methyl-6,7-dihydropyrazolo[1,5-a]pyrimidin-4(5H)-yl)-4-oxo-N-(5-(pyrazin-2-yl)pyridin-2-yl)butanamide], which IC50 is on record?
**A.** < 0.1 µM

**Q.** Which IC50 does the source give for `Cc1cc2n(n1)CC(C)CN2C(=O)CCC(=O)Nc1ccc(-c2cncc(F)c2)cn1` (stereo not drawn) [Compound 163, 4-(2,6-dimethyl-6,7-dihydropyrazolo[1,5-a]pyrimidin-4(5H)-yl)-N-(5′-fluoro-[3,3′-bipyridin]-6-yl)-4-oxobutanamide] here?
**A.** < 0.1 µM

**Q.** `Cc1ccc(-c2ccc(NC(=O)CCC(=O)N3CCCn4nc(C)cc43)cn2)cn1` [Compound 113, 4-(2-methyl-6,7-dihydropyrazolo[1,5-a]pyrimidin-4(5H)-yl)-N-(6′-methyl-[2,3′-bipyridin]-5-yl)-4-oxobutanamide] was tested. Which IC50 did it give?
**A.** < 0.1 µM

**Q.** `Cc1cc2n(n1)CCCN2C(=O)CCC(=O)Nc1cnc(-c2ccccc2)c(C)c1` [Compound 86, 4-(2-methyl-6,7-dihydropyrazolo[1,5-a]pyrimidin-4(5H)-yl)-N-(5-methyl-6-phenylpyridin-3-yl)-4-oxobutanamide] was tested. Which IC50 did it give?
**A.** < 5 µM
